Source: patent publication EP2491043B1, “2,7-SUBSTITUTED THIENO[3,2-D]PYRIMIDINE COMPOUNDS AS PROTEIN KINASE INHIBITORS” (Korea Institute of Science and Technology, priority 2009, dated 2011)

Legend:
tumor = settings: concurrent administration of TAE226 and docetaxel, animal model, P values < 0.01; cited from earlier work
[1] = system: prostate cancer PC-3, breast cancer BT-474, colon LoVo, lung cancer NCI-H460, glioblastoma U-87 MG and pancreatic cancer BxPC-3 cells; settings: 25-100 mg/kg p.o., human tumor xenografts; cited from earlier work
FAK = target: T1, FAK (Homo sapiens, UniProt Q05397); test: Measurement of FAK kinase activity (ULight-LANCE assay); assay type: biochemical; settings: 10 µM ATP, 3 nM FAK, TR-FRET; read-out: FAK inhibition activity (IC50)
T1 construct: purchased Cell Signaling 7796
T1 sequence (Q05397 whole entry): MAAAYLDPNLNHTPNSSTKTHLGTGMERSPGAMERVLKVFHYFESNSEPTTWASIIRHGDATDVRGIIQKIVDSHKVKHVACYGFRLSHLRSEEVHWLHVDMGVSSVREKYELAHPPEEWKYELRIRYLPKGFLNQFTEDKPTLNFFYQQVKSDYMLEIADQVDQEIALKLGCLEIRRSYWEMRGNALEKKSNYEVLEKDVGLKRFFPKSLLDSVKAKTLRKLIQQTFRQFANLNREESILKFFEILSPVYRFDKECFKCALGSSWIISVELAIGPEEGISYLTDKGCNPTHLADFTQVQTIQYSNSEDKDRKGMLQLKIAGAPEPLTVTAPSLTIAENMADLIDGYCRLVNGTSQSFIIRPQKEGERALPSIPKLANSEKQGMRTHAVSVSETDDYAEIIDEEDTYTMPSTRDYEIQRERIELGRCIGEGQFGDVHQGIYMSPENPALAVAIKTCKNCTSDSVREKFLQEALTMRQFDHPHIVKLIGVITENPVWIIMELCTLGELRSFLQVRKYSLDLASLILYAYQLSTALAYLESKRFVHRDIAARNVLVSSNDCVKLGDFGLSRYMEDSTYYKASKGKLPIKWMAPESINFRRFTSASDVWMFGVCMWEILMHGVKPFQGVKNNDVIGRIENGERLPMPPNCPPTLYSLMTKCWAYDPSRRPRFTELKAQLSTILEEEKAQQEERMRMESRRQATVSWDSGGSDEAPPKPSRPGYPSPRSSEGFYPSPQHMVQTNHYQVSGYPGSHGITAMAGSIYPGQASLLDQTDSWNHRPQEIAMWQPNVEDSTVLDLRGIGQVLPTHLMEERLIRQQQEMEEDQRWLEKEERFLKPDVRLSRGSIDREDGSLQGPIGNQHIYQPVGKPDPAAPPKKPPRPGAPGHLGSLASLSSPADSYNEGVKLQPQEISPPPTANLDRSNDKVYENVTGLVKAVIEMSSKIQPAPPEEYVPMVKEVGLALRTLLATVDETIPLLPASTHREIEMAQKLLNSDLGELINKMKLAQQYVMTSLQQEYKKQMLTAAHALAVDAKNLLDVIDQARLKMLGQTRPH
Procedure: Full sequence FAK was purchased from Cell Signaling (Catalog No.: 7796). ULight-poly GT (PerkinElmer #TRF0100-D), Eu-anti-phospho-Tyr (PT66) ((PerkinElmer #AD0068) and Lance detection buffer (PerkinElmer #CR-97-100) were purchased from PerkinElmer. The kinase solution (50 mM Tris-HCl pH 7.5, 10 mM MgCl2, 1 mM EGTA, 2 mM DTT, 0.01% Tween-20) was adjusted to a final concentration of 3 nM by adding FAK diluted to 6 nM (2X) in white 384 OptiPlate, and added with an amount of 5 µL. 4X ULight-poly GT was adjusted to a final concentration of 100 nM. ATP (Sigma #A2383) was adjusted to a final concentration of 10 µM and in 2.5 µL aliquots. The test compound was sequentially diluted at 12 concentrations and treated with an amount of 0.5 µL. After shaking well and allowing to react at room temperature for 60 minutes, 5 µL of ethylenediaminetetraacetic acid (EDTA, final concentration 40 mM) diluted in Lance detection buffer (Lance detection buffer) was added and the mixture was left at room temperature for 5 minutes to stop the reaction. After adding 4X Eu-anti-phospho-Tyr (PT66) phosphorylated antibody diluted to a final concentration of 2 nM in detection buffer with an amount of 5 µL, and reaction was performed at room temperature for 60 minutes. After adjusting to detect time-resolved fluorescence energy transfer (TR-FRET) at excitation wavelength 320 nm and emission wavelength 665 nm, signals were detected using EnVision Multilabel Reader.

[2] = system: HT-29 human colon adenocarcinoma cells; test: Inhibition of proliferation of HT-29 cells (MTT assay); assay type: cell-based; settings: read-out: Inhibition activity against proliferation of HT-29 cells (GI50)
Procedure: HT-29 human colon adenocarcinoma cells were cultured in DMEM [10% FBS, 1% penicillin/streptomycin] at 37 °C in the presence of 5% CO2. The cultured HT-29 cells were harvested with 0.05% trypsin-0.02% EDTA and seeded in a 96-well plate at 5 x 10^3 cells per well.
3-(4,5-Dimethylthiazol-2-yl)-2,5-diphenyltetrazolium bromide (MTT) assay (CellTiter 96 Assay, Promega) was employed to measure cell viability. After adding 15 µL of a dye per well and culturing for 2 hours, the cells were treated with 100 µL of a stop solution and absorbance was measured 24 hours later. The test compound was treated a day after plating. The test compound had been sequentially diluted at 12 concentrations from a 10 mM stock solution using sterilized dimethylsulfoxide (DMSO) and treated with an amount of 0.5 µL. Absorbance at 590 nm was recorded using En Vision 2103, and GI50 value was calculated using GraphPad Prism 4.0 software.

IC50 (FAK) [nM]	GI50 [2] [nM]	SMILES	tumor reduction (tumor)	inhibition of tumor growth or tumor degeneration [1]
–	–	CNC(=O)c1ccccc1Nc1nc(Nc2ccc(N3CCOCC3)cc2OC)ncc1Cl [TAE226]	85-97%	–
–	–	CN(c1ncccc1CNc1nc(Nc2ccc3c(c2)CC(=O)N3)ncc1C(F)(F)F)S(C)(=O)=O [PF-562271]	–	42-90%
< 1000	< 1000	Cc1ccc(Nc2ncc3scc(-c4cccc(NS(C)(=O)=O)c4)c3n2)cn1 [Example 11, N-(3-(2-(6-methylpyridin-3-ylamino)thieno[3,2-d]pyrimidin-7-yl)phenyl)methanesulfonamide]	–	–
< 1000	< 1000	CS(=O)(=O)Nc1cccc(-c2csc3cnc(Nc4ccc(N5CCOCC5)nc4)nc23)c1 [Example 12, N-(3-(2-(6-morpholinopyridin-3-ylamino)thieno[3,2-d]pyrimidin-7-yl)phenyl)methanesulfonamide]	–	–
< 500	< 1000	CCN1CCN(c2ccc(Nc3ncc4scc(-c5cccc(C(=O)NC6CC6)c5)c4n3)cn2)CC1 [Example 25, N-cyclopropyl-3-(2-(6-(4-ethylpiperazin-1-yl)pyridin-3-ylamino)thieno[3,2-d]pyrimidin-7-yl)benzamide]	–	–
< 500	< 1000	CCN1CCN(c2ccc(Nc3ncc4scc(-c5cccc(NS(C)(=O)=O)c5)c4n3)cn2)CC1 [Example 1, N-(3-(2-(6-(4-ethylpiperazin-1-yl)pyridin-3-ylamino)thieno[3,2-d]pyrimidin-7-yl)phenyl)methanesulfonamide]	–	–
< 10000	–	Cc1ccc(Nc2ncc3scc(-c4cccc(C(=O)NC5CC5)c4)c3n2)cn1 [Example 26, N-cyclopropyl-3-(2-(6-methylpyridin-3-ylamino)thieno[3,2-d]pyrimidin-7-yl)benzamide]	–	–
< 500	< 1000	CCN1CCN(c2ccc(Nc3ncc4scc(-c5cnc6ccccc6c5)c4n3)cn2)CC1 [Example 30, N-(6-(4-ethylpiperazin-1-yl)pyridin-3-yl)-7-(quinolin-3-yl)thieno[3,2-d]pyrimidin-2-amine]	–	–
< 500	< 1000	O=C(NC1CC1)c1cccc(-c2csc3cnc(Nc4ccc(N5CCOCC5)nc4)nc23)c1 [Example 27, N-cyclopropyl-3-(2-(6-morpholinopyridin-3-ylamino)thieno[3,2-d]pyrimidin-7-yl)benzamide]	–	–
< 500	< 1000	CN(C)CCOc1ccc(Nc2ncc3scc(-c4cccc(NS(C)(=O)=O)c4)c3n2)cn1 [Example 13, N-(3-(2-(6-(2-(dimethylamino)ethoxy)pyridin-3-ylamino)thieno[3,2-d]pyrimidin-7-yl)phenyl)methanesulfonamide]	–	–
